Reference: ChEMBL document CHEMBL6134916, “Novel Substituted Cyclic Compounds as SLC6A19 Inhibitors for Treating Phenylketonuria and Other Amino Acidurias” (ACS Med Chem Lett, 2025)

Target: T1, Sodium-dependent neutral amino acid transporter B(0)AT1 (Homo sapiens, UniProt Q695T7)
T1 sequence (Q695T7 whole entry): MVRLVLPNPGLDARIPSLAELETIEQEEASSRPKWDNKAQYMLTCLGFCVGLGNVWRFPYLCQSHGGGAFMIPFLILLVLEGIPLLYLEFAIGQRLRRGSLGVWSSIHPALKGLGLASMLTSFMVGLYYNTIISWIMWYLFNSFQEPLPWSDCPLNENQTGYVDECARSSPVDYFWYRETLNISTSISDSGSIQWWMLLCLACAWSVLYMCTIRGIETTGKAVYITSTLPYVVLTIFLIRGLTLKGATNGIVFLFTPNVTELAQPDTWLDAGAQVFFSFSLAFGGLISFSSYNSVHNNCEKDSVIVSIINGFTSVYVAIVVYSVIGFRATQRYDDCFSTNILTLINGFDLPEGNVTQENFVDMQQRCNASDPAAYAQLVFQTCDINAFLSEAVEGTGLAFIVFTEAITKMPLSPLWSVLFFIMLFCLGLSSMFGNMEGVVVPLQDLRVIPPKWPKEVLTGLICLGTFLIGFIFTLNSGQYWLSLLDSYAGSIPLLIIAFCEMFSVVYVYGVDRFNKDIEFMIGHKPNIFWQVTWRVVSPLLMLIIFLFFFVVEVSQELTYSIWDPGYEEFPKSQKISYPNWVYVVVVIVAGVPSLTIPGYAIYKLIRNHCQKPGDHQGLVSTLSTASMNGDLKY
Experiment: Inhibition of human SLC6A19 expressed in MDCK cells co-expressing human TMEM27 using 13C6/15N-L-Isoleucine as substrate preincubated for 20 mins followed by substrate addition and measured after 20 mins by stable isotope uptake assay
Format: cell-based

CNC(=O)c1cc2c(-c3ccc(C(=O)NCc4cccc(C(F)(F)F)c4)cc3)ccc(F)c2[nH]1
IC50: 4 nM

CNC(=O)c1cc2c(-c3ccc(C(=O)NCc4cccc(C(F)(F)F)c4)cc3)cc(C)c(F)c2[nH]1
IC50: 5 nM

CNC(=O)c1cc2c(-c3ccc(C(=O)NCc4cccc(C(F)(F)F)c4)cc3)cc(C(C)C)cc2[nH]1
IC50: 5 nM

CNC(=O)c1cc2c(-c3ccc(C(=O)NCc4cccc(C(F)(F)F)c4)cc3Cl)cccc2[nH]1
IC50: 3 nM

CNC(=O)c1cc2c(-c3ccc(C(=O)NCc4cccc(C(F)(F)F)c4)cc3)c(OC)ccc2[nH]1
IC50: 5 nM

CNC(=O)c1cc2c(-c3ccc(C(=O)NCc4cc(C(F)(F)F)ccc4F)cc3F)cccc2[nH]1
IC50: 4 nM
